Source: patent US4467086A, “Cephalosporin antibiotic” (Glaxo Group Limited, priority 1979, dated 1984)
Structures can show the parent of a compound that is named as a salt.

Tests used:
[1] = storage stability of the solid; assay type: physicochemical
indolepositive Proteus = assay: antibacterial activity, indole-positive Proteus; assay type: cell-based; conditions: organisms normally difficult to combat with β-lactam antibiotics
Serratia = assay: antibacterial activity, Serratia; assay type: cell-based; conditions: organisms normally difficult to combat with β-lactam antibiotics
Providence = assay: antibacterial activity, Providence; assay type: cell-based; conditions: organisms normally difficult to combat with β-lactam antibiotics
Pseudomonas organisms = assay: antibacterial activity, Pseudomonas; assay type: cell-based; conditions: organisms normally difficult to combat with β-lactam antibiotics
bacteria = assay: antibacterial properties: human serum effect, inoculum effect, bactericidal action; assay type: cell-based
gram-negative bacteria = assay: experimental infections in mice with gram-negative bacteria; assay type: in vivo
Pseudomonas aeruginosa = assay: experimental infections in mice with Pseudomonas aeruginosa; assay type: in vivo
[2] = pharmacokinetics in human volunteers; assay type: in vivo
early clinical results = assay type: in vivo, human
[3] = in vivo
[4] = test system: gram-negative organisms, including many β-lactamase-producing gram-negative strains; conditions: as described in UK Patent Specification No. 2025398, cited from earlier work

Structure (SMILES) | stability ([1]; crystalline form, stored for an extended period at a temperature of 50° C.) | activity against indole-positive Proteus (indolepositive Proteus) | activity against Serratia (Serratia) | activity against Providence (Providence) | activity against Pseudomonas (Pseudomonas organisms) | effect of human serum on antibacterial properties (bacteria) | treatment of experimental infections (gram-negative bacteria) | protection against Pseudomonas aeruginosa infection (Pseudomonas aeruginosa) | protection compared with aminoglycoside treatment (Pseudomonas aeruginosa; versus an aminoglycoside such as amikacin) | serum levels after injection [2] | clinical antibiotic properties (early clinical results) | stability ([1]; amorphous solid, especially at elevated temperatures) | distribution in the body [3] | antibiotic activity spectrum [4] | activity against gram-negative organisms ([4]; including many β-lactamase-producing gram-negative strains)
CC(C)(O/N=C(\C(=O)N[C@@H]1C(=O)N2C(C(=O)[O-])=C(C[n+]3ccccc3)CS[C@H]12)c1csc(N)n1)C(=O)O [(6R,7R)-7-[(Z)-2-(2-aminothiazol-4-yl)-2-(2-carboxyprop-2-oxyimino)acetamido]-3-(1-pyridiniummethyl)ceph-3-em-4-carboxylate bishydrochloride] | remarkably stable |  |  |  |  |  |  |  |  |  |  |  |  |  | 
CC(C)(O/N=C(\C(=O)N[C@@H]1C(=O)N2C(C(=O)[O-])=C(C[n+]3ccccc3)CS[C@H]12)c1csc(N)n1)C(=O)O [ceftazidime, (6R,7R)-7-[(Z)-2-(2-aminothiazol-4-yl)-2-(2-carboxyprop-2-oxyimino)acetamido]-3-(1-pyridiniummethyl)ceph-3-em-4-carboxylate] |  | excellent activity | excellent activity | excellent activity | excellent activity | not impaired | successfully treated | excellent protection | comparable | high and long lasting | reproduces in the clinic the excellent antibiotic properties | not particularly satisfactory | well distributed | broad spectrum antibiotic activity | unusually high activity
